Results: patent publication US8076487B2, “Pyridone derivative and herbicide” (Kumiai Chemical Industry Co., Ltd., priority 2006, dated 2011)

What was measured:
Type in all cases: in vivo
[1] = test system: heartshape false pickerelweed (Monochoria vaginalis (Burm.f.) C.Presl); assay: Test Example 1: herbicidal effect by soil application to paddy field; conditions: paddy field soil application; active ingredient 1,000 g per 1 hectare; wettable powder added dropwise to water surface the day after sowing; examined on the 21st day after application
Outline: (§1)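 Plants were sown in flooded (3 cm) paddy soil and evaluated for herbicidal effect 21 days after soil application in a greenhouse.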

[2] = test system: Japanese bulrush (Scirpus juncoides Roxb.); assay: as above; conditions: paddy field soil application; active ingredient 1,000 g per 1 hectare; wettable powder added dropwise to water surface the day after sowing; examined on the 21st day after application
Outline: as §1

[3] = test system: early watergrass (Echinochloa oryzicola Vasing); assay: as above; conditions: paddy field soil application; active ingredient 1,000 g per 1 hectare; wettable powder added dropwise to water surface the day after sowing; examined on the 21st day after application
Outline: as §1

[4] = test system: velvetleaf (Abutilon theophrasti medicus); assay: Test Example 2: herbicidal effect by soil application to upland field; conditions: soil surface spray, upland field soil, 1,000 g active ingredient per hectare, 21st day after application
Outline: (§2)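 Scoring on a standard scale took place 21 days after application, with plants kept in a greenhouse. Active ingredient (1,000 g/ha, as diluted wettable powder, 1,000 L/ha) was sprayed evenly onto soil directly after sowing and covering seeds.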

[5] = test system: barnyardgrass (Echinochloa crus-galli (L.) P. Beauv. var. crus-galli); assay: as above; conditions: soil surface spray, upland field soil, 1,000 g active ingredient per hectare, 21st day after application
Outline: as §2

[6] = test system: green foxtail (Setaria viridis (L.) P. Beauv.); assay: as above; conditions: soil surface spray, upland field soil, 1,000 g active ingredient per hectare, 21st day after application
Outline: as §2

[7] = test system: slender amaranth (Amaranthus viridis L.); assay: as above; conditions: soil surface spray, upland field soil, 1,000 g active ingredient per hectare, 21st day after application
Outline: as §2

[8] = test system: velvetleaf (Abutilon theophrasti medicus); assay: Test Example 3: herbicidal effect by application to upland field (foliage treatment); conditions: 14th day after application; for herbicidal effect, Velvetleaf: foliage treatment, 1,000 g active ingredient per 1 hectare, greenhouse; for herbicidal effect (index), Velvetleaf: foliage treatment, plants grown two weeks, 1,000 g active ingredient per hectare
Outline: (§3)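 Field-soil pots sown with the four weed species and grown two weeks in a greenhouse, then sprayed over the whole plant with wettable powder in water at 1,000 g active ingredient/ha in 1,000 L/ha. Herbicidal effect scored against a rating standard 14 days after treatment.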

[9] = test system: barnyardgrass (Echinochloa crus-galli (L.) P. Beauv. var. crus-galli); assay: as above; conditions: 14th day after application; for herbicidal effect, Barnyardgrass: foliage treatment, 1,000 g active ingredient per 1 hectare, greenhouse; for herbicidal effect (index), Barnyardgrass: foliage treatment, plants grown two weeks, 1,000 g active ingredient per hectare
Outline: as §3

[10] = test system: green foxtail (Setaria viridis (L.) P. Beauv.); assay: as above; conditions: 14th day after application; for herbicidal effect, Green Foxtail: foliage treatment, 1,000 g active ingredient per 1 hectare, greenhouse; for herbicidal effect (index), Green Foxtail: foliage treatment, plants grown two weeks, 1,000 g active ingredient per hectare
Outline: as §3

[11] = test system: slender amaranth (Amaranthus viridis L.); assay: as above; conditions: 14th day after application; for herbicidal effect, Slender Amaranth: foliage treatment, 1,000 g active ingredient per 1 hectare, greenhouse; for herbicidal effect (index), Slender Amaranth: foliage treatment, plants grown two weeks, 1,000 g active ingredient per hectare
Outline: as §3

| SMILES | herbicidal effect, Monochoria vaginalis (Burm. f.) C. Presl [1] | herbicidal effect, Scirpus juncoides Roxb. [2] | herbicidal effect, Echinochloa oryzicola Vasing [3] | herbicidal effect (index), Velvetleaf [4] | herbicidal effect (index), Barnyardgrass [5] | herbicidal effect (index), Green Foxtail [6] | herbicidal effect (index), Slender Amaranth [7] | herbicidal effect, Velvetleaf [8] | herbicidal effect, Barnyardgrass [9] | herbicidal effect, Green Foxtail [10] | herbicidal effect, Slender Amaranth [11] | herbicidal effect (index), Velvetleaf [8] | herbicidal effect (index), Barnyardgrass [9] | herbicidal effect (index), Green Foxtail [10] | herbicidal effect (index), Slender Amaranth [11] |
| --- | --- | --- | --- | --- | --- | --- | --- | --- | --- | --- | --- | --- | --- | --- | --- |
| CCCCCCCC(=O)Oc1c(C(=O)c2ccc(C(F)(F)F)n(CC3CCCO3)c2=O)cnn1C (stereo not shown) [IV-130] | 5 (90% or more of herbicidal effect and crop phytotoxicity) | 5 (90% or more of herbicidal effect and crop phytotoxicity) | 5 (90% or more of herbicidal effect and crop phytotoxicity) | 5 (90% or more of herbicidal effect and crop phytotoxicity) | 4 (70 to less than 90% of herbicidal effect and crop phytotoxicity) | 4 (70 to less than 90% of herbicidal effect and crop phytotoxicity) | 5 (90% or more of herbicidal effect and crop phytotoxicity) | 4 (70 to less than 90% of herbicidal effect and crop phytotoxicity) | 5 (90% or more of herbicidal effect and crop phytotoxicity) | 4 (70 to less than 90% of herbicidal effect and crop phytotoxicity) | 5 (90% or more of herbicidal effect and crop phytotoxicity) | – | – | – | – |
| COc1ccccc1-n1c(C(F)(F)F)ccc(C(=O)C2=C(O)CCCC2=O)c1=O [I-76] | 5 (90% or more of herbicidal effect and crop phytotoxicity) | 5 (90% or more of herbicidal effect and crop phytotoxicity) | 5 (90% or more of herbicidal effect and crop phytotoxicity) | 5 (90% or more of herbicidal effect and crop phytotoxicity) | 5 (90% or more of herbicidal effect and crop phytotoxicity) | 5 (90% or more of herbicidal effect and crop phytotoxicity) | 5 (90% or more of herbicidal effect and crop phytotoxicity) | – | – | – | – | 5 (90% or more of herbicidal effect and crop phytotoxicity) | 5 (90% or more of herbicidal effect and crop phytotoxicity) | 3 (50 to less than 70% of herbicidal effect and crop phytotoxicity) | 5 (90% or more of herbicidal effect and crop phytotoxicity) |
| CCOCCn1c(C(F)(F)F)ccc(C(=O)c2cnn(C)c2O)c1=O [IV-34] | 5 (90% or more of herbicidal effect and crop phytotoxicity) | 5 (90% or more of herbicidal effect and crop phytotoxicity) | 5 (90% or more of herbicidal effect and crop phytotoxicity) | 5 (90% or more of herbicidal effect and crop phytotoxicity) | 5 (90% or more of herbicidal effect and crop phytotoxicity) | 5 (90% or more of herbicidal effect and crop phytotoxicity) | 5 (90% or more of herbicidal effect and crop phytotoxicity) | 5 (90% or more of herbicidal effect and crop phytotoxicity) | 5 (90% or more of herbicidal effect and crop phytotoxicity) | 5 (90% or more of herbicidal effect and crop phytotoxicity) | 5 (90% or more of herbicidal effect and crop phytotoxicity) | – | – | – | – |
| CCNn1c(C(F)(F)F)ccc(C(=O)C2=C(O)CCCC2=O)c1=O [I-158] | 5 (90% or more of herbicidal effect and crop phytotoxicity) | 5 (90% or more of herbicidal effect and crop phytotoxicity) | 5 (90% or more of herbicidal effect and crop phytotoxicity) | 5 (90% or more of herbicidal effect and crop phytotoxicity) | 5 (90% or more of herbicidal effect and crop phytotoxicity) | 5 (90% or more of herbicidal effect and crop phytotoxicity) | 5 (90% or more of herbicidal effect and crop phytotoxicity) | 5 (90% or more of herbicidal effect and crop phytotoxicity) | 5 (90% or more of herbicidal effect and crop phytotoxicity) | 5 (90% or more of herbicidal effect and crop phytotoxicity) | 5 (90% or more of herbicidal effect and crop phytotoxicity) | – | – | – | – |
| Cc1nn(C)c(O)c1C(=O)c1ccc(C(F)(F)F)n(-c2ccc(F)c(F)c2)c1=O [IV-86] | 5 (90% or more of herbicidal effect and crop phytotoxicity) | 4 (70 to less than 90% of herbicidal effect and crop phytotoxicity) | 5 (90% or more of herbicidal effect and crop phytotoxicity) | 5 (90% or more of herbicidal effect and crop phytotoxicity) | 5 (90% or more of herbicidal effect and crop phytotoxicity) | 5 (90% or more of herbicidal effect and crop phytotoxicity) | 5 (90% or more of herbicidal effect and crop phytotoxicity) | 5 (90% or more of herbicidal effect and crop phytotoxicity) | 5 (90% or more of herbicidal effect and crop phytotoxicity) | 4 (70 to less than 90% of herbicidal effect and crop phytotoxicity) | 5 (90% or more of herbicidal effect and crop phytotoxicity) | – | – | – | – |
| C[S+]([O-])c1cccc(-n2c(C(F)(F)F)ccc(C(=O)C3=C(O)CCCC3=O)c2=O)c1 (stereo not shown) [I-81] | 5 (90% or more of herbicidal effect and crop phytotoxicity) | 5 (90% or more of herbicidal effect and crop phytotoxicity) | 5 (90% or more of herbicidal effect and crop phytotoxicity) | 5 (90% or more of herbicidal effect and crop phytotoxicity) | 5 (90% or more of herbicidal effect and crop phytotoxicity) | 5 (90% or more of herbicidal effect and crop phytotoxicity) | 5 (90% or more of herbicidal effect and crop phytotoxicity) | – | – | – | – | 5 (90% or more of herbicidal effect and crop phytotoxicity) | 5 (90% or more of herbicidal effect and crop phytotoxicity) | 5 (90% or more of herbicidal effect and crop phytotoxicity) | 5 (90% or more of herbicidal effect and crop phytotoxicity) |
| CCCCn1c(C(F)(F)F)ccc(C(=O)C2=C(O)C3CCC(C3)C2=O)c1=O (stereo not shown) [III-6] | 5 (90% or more of herbicidal effect and crop phytotoxicity) | 5 (90% or more of herbicidal effect and crop phytotoxicity) | 5 (90% or more of herbicidal effect and crop phytotoxicity) | 5 (90% or more of herbicidal effect and crop phytotoxicity) | 5 (90% or more of herbicidal effect and crop phytotoxicity) | 5 (90% or more of herbicidal effect and crop phytotoxicity) | 5 (90% or more of herbicidal effect and crop phytotoxicity) | 5 (90% or more of herbicidal effect and crop phytotoxicity) | 5 (90% or more of herbicidal effect and crop phytotoxicity) | 5 (90% or more of herbicidal effect and crop phytotoxicity) | 5 (90% or more of herbicidal effect and crop phytotoxicity) | – | – | – | – |
| O=C1CCCC(O)=C1C(=O)c1ccc(C(F)(F)F)n(CSCC2CC2)c1=O [I-57] | 5 (90% or more of herbicidal effect and crop phytotoxicity) | 5 (90% or more of herbicidal effect and crop phytotoxicity) | 5 (90% or more of herbicidal effect and crop phytotoxicity) | 5 (90% or more of herbicidal effect and crop phytotoxicity) | 5 (90% or more of herbicidal effect and crop phytotoxicity) | 5 (90% or more of herbicidal effect and crop phytotoxicity) | 5 (90% or more of herbicidal effect and crop phytotoxicity) | – | – | – | – | 5 (90% or more of herbicidal effect and crop phytotoxicity) | 5 (90% or more of herbicidal effect and crop phytotoxicity) | 5 (90% or more of herbicidal effect and crop phytotoxicity) | 5 (90% or more of herbicidal effect and crop phytotoxicity) |
